# Measured values taken from US5001134A, “Piperidines, processes of preparation and medications containing them” (Lipha, Lyonnaise Industrielle Pharmaceutique, priority 1989, dated 1991).
# Experiments:
# [1] = Toxicity, 50 lethal dose on the rat using the oral route; conditions: in vivo
# Protocol: By way of illustration, the 50 lethal dose determined on the rat using the oral route, in the case of the compound described in Example 1, is 1,700 mg/kg, that is 170 times the active dose in this species.
# [2] = test system: genetically hypertensive rat (SHR); test: Antihypertensive activity in the genetically hypertensive rat (SHR), oral, arterial pressure measured 3 hours later; assay type: in vivo; conditions: SHR male rats, groups of 10, 3 hours after oral treatment, read-out: Antihypertensive activity (SHR) M.A.D. (minimum dose significantly reducing the mean arterial pressure)
# Protocol: The antihypertensive activity was investigated in the genetically hypertensive rat (SHR) whose arterial pressure was regularly monitored: hypertensive male rats having a particularly stable arterial pressure are grouped by 10 and treated orally with the compounds being studied Their arterial pressure is measured 3 hours later.
# (§1) The results obtained by these two methods in the case of a few products of the invention and in the case of ketanserin (3-[2-[4-(4-fluorobenzoyl)-1-piperidinyl]ethyl]quinazolin-2,4-(1H,3H)-dione), taken as control, are listed in Table I.
# isolated rat aorta = test: Antagonism towards serotonin in vitro on the isolated rat aorta (serotonin-triggered contraction); conditions: contraction by serotonin 20 μM, product added 10 min after serotonin, left 15 min, minimum of 3 aortas, read-out: Isolated rat aorta antiserotonin activity IC 50
# Protocol: The thoracic aorta is rapidly removed. A fragment of approximately 1 cm is cut into a spiral and then placed in a cell containing 20 ml of nutrient medium (Krebs-Henseleit) kept at 37° C. and oxygenated (95% O2, 5% CO2). The contraction is recorded using an isotonic strain gauge. After a rest of 45 min, supramaximal contractions are triggered by adding serotonin (20 μM) to the survival medium. A plateau is generally reached after 10 min of contact, the latter not exceeding 25 min. A rest of 30 min and numerous rinsings separate each contraction. The products are added 10 min after the serotonin and left for 15 min, at the end of which period the inhibition is measured. The inhibiting concentration 50 (IC 50) is determined for each compound being studied on a minimum of 3 aortas.
# as §1
Compound,LD50 ([1]; oral route) [mg/kg],"selectivity ratio ([1]; oral, LD50 / active dose, read-out: 50 lethal dose as multiple of the active dose in this species)",minimal effective dose [2] [mg/kg],IC50 (isolated rat aorta) [nM]
"CNC(=NC#N)NCCN1CCC(C(=O)c2ccc(F)cc2)CC1 [Example 1, N-Cyano-N'-[2-[4-(4-fluorobenzoyl)-1-piperidinyl]ethyl]-N""-methylguanidine]",1700,170,10,530
"CN(C)C(=NCCN1CCC(C(=O)c2ccc(F)cc2)CC1)NC#N [Example 10, N'-Cyano-N,N-dimethyl-N""-[2-[4-(4-fluorobenzoyl)-1-piperidinyl]ethyl]guanidine]",–,–,10,460
"CN=C(NC#N)NCCCN1CCC(C(=O)c2ccc(F)cc2)CC1 [Example 12, N-Cyano-N'-[3-[4-(4-fluorobenzoyl)-1-piperidinyl]propyl]-N""-methylguanidine]",–,–,5,170
CN(C)C(=NC#N)NCCCN1CCC(C(=O)c2ccc(F)cc2)CC1 [Example 13],–,–,5,1950
"CN=C(NC#N)NCCCCN1CCC(C(=O)c2ccc(F)cc2)CC1 [Example 14, N-Cyano-N'-[4-[4-(4-fluorobenzoyl)-1-piperidinyl]butyl]-N""-methylguanidine]",–,–,10,670
"CN=C(NC#N)NCCN1CCC(c2noc3cc(F)ccc23)CC1 [Example 18, N-Cyano-N'-[2-[4-(6-fluoro-1,2-benzisoxazol-3-yl)-1-piperidinyl]ethyl]-N""-methylguanidine]",–,–,2,90
"CN=C(NC#N)NCCCN1CCC(c2noc3cc(F)ccc23)CC1 [Example 19, N-Cyano-N'-[3-[4-(6-fluoro-1,2-benzisoxazol-3-yl)-1piperidinyl]propyl]-N""-methylguanidine]",–,–,0.5,50
"CCNC(=NCCCN1CCC(c2noc3cc(F)ccc23)CC1)NC#N [Example 20, N-Cyano-N'-ethyl-N""-[3-[4-(6-fluoro-1,2-benzisoxazol-3-yl)-1-piperidinyl]propyl]guanidine]",–,–,0.5,40
"CN(C)C(=NCCCN1CCC(c2noc3cc(F)ccc23)CC1)NC#N [Example 21, N'-Cyano-N,N-dimethyl-N""-[3-[4-(6-fluoro-1,2-benzisoxazol-3-yl)-1-piperidinyl]propyl]guanidine]",–,–,2,100
"N#CNC(=N)NCCCN1CCC(c2noc3cc(F)ccc23)CC1 [Example 22, N-Cyano-N'-[3-[4-(6-fluoro-1,2-benzisoxazol-3-yl)-1-piperidinyl]propyl]guanidine]",–,–,5,20
"CNC(=C[N+](=O)[O-])NCCN1CCC(C(=O)c2ccc(F)cc2)CC1 [Example 24, N-[2-[4-(4-Fluorobenzoyl)-1-piperidinyl]ethyl]-N'-methyl-2-nitro-1,1-ethenediamine]",–,–,10,2900
"CNC(=C[N+](=O)[O-])NCCN1CCC(c2noc3cc(F)ccc23)CC1 [Example 26, N-[2-[4-(6-Fluoro-1,2-benzisoxazol-3-yl)-1-piperidinyl]ethyl]-N'-methyl-2-nitro-1,1-ethenediamine]",–,–,5,380
"O=C(c1ccc(F)cc1)C1CCN(CCn2c(=O)[nH]c3ccccc3c2=O)CC1 [Ketanserin, 3-[2-[4-(4-fluorobenzoyl)-1-piperidinyl]ethyl]quinazolin-2,4-(1H,3H)-dione, reference compound]",–,–,25,150
